Data as given in the supplement of paper PMC10307832.

What was measured:
Experiment in all cases: relative viability (nuclei count vs DMSO), 5 days (fraction); higher = more cells survive
AZD6482 + Crizotinib = compound: Cc1cc([C@@H](C)Nc2ccccc2C(=O)O)c2nc(N3CCOCC3)cc(=O)n2c1 [AZD6482] + C[C@@H](Oc1cc(-c2cnn(C3CCNCC3)c2)cnc1N)c1c(Cl)ccc(F)c1Cl [Crizotinib] (partner 1 µM)
Summary of the method: (§1)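 Nuclei were stained with Hoechst during a one-step fixation (final 0.05% Triton X-100, 1% formaldehyde, 1 ug/ml Hoechst) carried out 5 days after dosing, then counted on 4× images. The cells, lung cancer lines in 1536-well plates, had been dosed by pin tool the day after seeding with one drug alone or a fixed anchor-drug dose plus five library-drug doses (not always all listed) in √10 steps. Relative viability is the nuclei count in treated wells divided by that in vehicle wells, and each value is the median of duplicate plates.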

[1] = compound: COc1cc2nc(N3CCCN(C)CC3)nc(NC3CCN(Cc4ccccc4)CC3)c2cc1OC + O=C(CCCCCCC(=O)Nc1ccccc1)NO [Vorinostat] (partner 1 µM)
Summary of the method: as §1

AZD6482 + Foretinib = compound: Cc1cc([C@@H](C)Nc2ccccc2C(=O)O)c2nc(N3CCOCC3)cc(=O)n2c1 [AZD6482] + COc1cc2c(Oc3ccc(NC(=O)C4(C(=O)Nc5ccc(F)cc5)CC4)cc3F)ccnc2cc1OCCCN1CCOCC1 [Foretinib] (partner 0.25 µM)
Summary of the method: as §1

[2] = compound: COc1cc2nc(N3CCCN(C)CC3)nc(NC3CCN(Cc4ccccc4)CC3)c2cc1OC + NC(=O)Nc1cc(-c2cccc(F)c2)sc1C(=O)N[C@H]1CCCNC1 [AZD7762] (partner 0.2 µM)
Summary of the method: as §1

Cell Line | relative viability (AZD6482 + Crizotinib; first compound 0.08 µM) | relative viability (AZD6482 + Crizotinib; first compound 0.253 µM) | relative viability (AZD6482 + Crizotinib; first compound 0.8 µM) | relative viability (AZD6482 + Crizotinib; first compound 2.53 µM) | relative viability (AZD6482 + Crizotinib; first compound 8 µM) | relative viability ([1]; first compound 0.2 µM) | relative viability ([1]; first compound 0.6325 µM) | relative viability ([1]; first compound 2 µM) | relative viability ([1]; first compound 6.325 µM) | relative viability (AZD6482 + Foretinib; first compound 0.08 µM) | relative viability (AZD6482 + Foretinib; first compound 0.253 µM) | relative viability (AZD6482 + Foretinib; first compound 0.8 µM) | relative viability (AZD6482 + Foretinib; first compound 2.53 µM) | relative viability (AZD6482 + Foretinib; first compound 8 µM) | relative viability ([2]; first compound 0.2 µM) | relative viability ([2]; first compound 0.6325 µM) | relative viability ([2]; first compound 2 µM) | relative viability ([2]; first compound 6.325 µM)
HCC-827 | 0.894 | 0.958 | 0.936 | 0.885 | 0.63 | 0.899 | 0.786 | 0.784 | 0.826 | 0.986 | 0.878 | 0.945 | 0.678 | 0.499 | 0.199 | 0.213 | 0.15 | 0.238
HOP-62 | 1.07 | 0.897 | 0.609 | 0.782 | 0.751 | 0.658 | 0.366 | 0.638 | 0.435 | 1.12 | 1.15 | 1.23 | 0.94 | 1.02 | 0.485 | 0.425 | 0.726 | 0.521
IA-LM | 0.968 | 1.06 | 1.01 | – | 1.08 | 0.983 | 0.876 | 0.908 | 0.975 | 1.18 | 1.2 | 1.52 | – | 1.09 | – | – | – | –
LC-2-ad | 0.434 | – | 0.476 | 0.404 | 0.367 | 0.679 | 0.716 | 0.763 | 0.693 | 0.902 | 0.939 | 0.878 | 0.714 | 0.787 | 0.827 | 0.908 | 0.941 | 0.91
LCLC-97TM1 | 0.479 | 0.327 | 0.298 | 0.294 | 0.234 | 0.801 | 0.649 | 1 | 0.69 | 0.854 | 0.778 | 0.823 | 0.595 | 0.596 | 0.335 | 0.269 | 0.297 | 0.277
NCI-H520 | 0.623 | 0.615 | 0.523 | – | 0.4 | 0.77 | 0.77 | 0.586 | 0.209 | 0.423 | 0.661 | 0.493 | 0.203 | 0.304 | – | – | – | –
NCI-H522 | – | – | – | – | – | 0.803 | 0.884 | 0.879 | 0.676 | – | – | – | – | – | 0.901 | 0.791 | 0.986 | 0.792
NCI-H661 | – | 1.03 | 1.02 | – | 0.971 | 0.763 | 0.774 | 0.833 | 0.807 | 0.962 | 1.06 | 1.14 | 0.723 | 0.815 | – | – | – | –
NCI-H1299 | 0.956 | 0.946 | 1.04 | 0.942 | 0.989 | – | – | – | – | 1.06 | 1.13 | 1.31 | 1.11 | 1.12 | – | – | – | –
NCI-H1395 | – | – | – | – | – | 0.617 | 1.24 | 0.896 | 0.491 | 0.757 | 0.663 | 0.687 | 0.518 | 0.555 | 0.413 | 0.446 | 0.37 | 0.335
NCI-H1563 | 0.783 | 0.821 | 0.82 | 0.663 | 0.769 | – | – | – | – | 0.89 | 0.875 | 0.908 | 0.765 | 0.652 | – | – | – | –
NCI-H1623 | – | – | – | – | – | – | – | – | – | 0.778 | 0.888 | 0.923 | 0.703 | 0.682 | – | – | – | –
NCI-H1648 | – | – | – | – | – | – | 0.562 | – | 0.616 | – | – | – | – | – | – | 0.708 | – | 0.68
NCI-H1650 | 0.907 | – | 0.958 | 0.662 | 0.653 | 0.66 | 0.656 | 0.747 | 0.465 | 0.902 | 0.937 | 0.933 | 0.738 | 0.684 | – | – | – | –
NCI-H1703 | 0.583 | 0.505 | 0.396 | 0.245 | 0.343 | – | – | – | – | 0.266 | 0.414 | 0.322 | 0.259 | 0.259 | 0.118 | – | 0.125 | 0.184
NCI-H1792 | 0.909 | 0.828 | 0.983 | 0.717 | 0.444 | – | – | – | – | – | – | – | – | – | 0.778 | 0.591 | 0.76 | 0.58
NCI-H1793 | – | – | – | – | – | 0.692 | 1.06 | 0.871 | 0.638 | 0.575 | 0.431 | 0.507 | 0.3 | 0.322 | 0.43 | 0.617 | 0.357 | 0.432
NCI-H2009 | 0.884 | 1.03 | 1.05 | 0.693 | 0.813 | 0.803 | 0.762 | 0.767 | 0.569 | 1.12 | 1.24 | 1.24 | 0.83 | 0.747 | – | – | – | –
NCI-H2023 | 0.535 | 0.615 | 0.509 | 0.411 | 0.494 | 0.565 | 0.63 | 0.509 | 0.0993 | 0.83 | 0.757 | 1.02 | 0.477 | 0.518 | – | – | – | –
NCI-H2228 | 0.368 | 0.46 | 0.308 | 0.254 | 0.275 | 0.37 | 0.662 | 0.54 | 0.25 | – | 0.791 | 0.862 | 0.694 | 0.649 | – | – | – | –
NCI-H2342 | – | – | – | – | – | 0.638 | 0.729 | 0.792 | 0.757 | 0.927 | 0.891 | 0.987 | 0.614 | 0.653 | 0.472 | 0.748 | 0.652 | 0.497
SK-LU-1 | – | 0.908 | 0.931 | 0.696 | 0.886 | 0.832 | 0.747 | 0.844 | 0.641 | – | 0.735 | 0.688 | 0.555 | 0.584 | – | – | – | –
SK-MES-1 | 0.854 | 0.838 | 0.86 | 0.419 | 0.439 | 1.02 | 1.04 | 1.22 | 0.472 | 0.519 | 0.783 | 0.565 | 0.422 | 0.403 | – | – | – | –
SW 900 | – | – | – | – | – | 0.365 | 0.713 | 0.565 | 0.375 | 0.751 | 0.753 | 0.773 | – | 0.792 | 0.62 | 0.564 | 0.611 | 0.577
SW 1573 | 0.781 | 0.696 | 0.733 | 0.548 | 0.466 | 0.704 | 0.574 | 0.684 | 0.199 | 0.792 | 0.776 | 0.862 | 0.726 | 0.608 | – | – | – | –
